Data reported in patent US11944626B2, “Small molecule inhibitors of ALDH and uses thereof” (The Regents of the University of Michigan, priority 2016, dated 2024).

Columns and labels:
ALDH1A3 = molecular target: T1, ALDH1A3 (Homo sapiens, UniProt P47895); assay: Inhibition of ALDH isoenzymes (NAD(P)H formation at 340 nm, purified recombinant enzyme); format: biochemical; conditions: for remaining activity at 20 µM: compound at 20 μM, read-out: ALDH1A3 % Control at 20 μM; for IC50: 100-200 nM enzyme, 200 μM NAD+, 100 μM propionaldehyde, pH 7.5, 25° C.
T1 sequence (P47895 1-512): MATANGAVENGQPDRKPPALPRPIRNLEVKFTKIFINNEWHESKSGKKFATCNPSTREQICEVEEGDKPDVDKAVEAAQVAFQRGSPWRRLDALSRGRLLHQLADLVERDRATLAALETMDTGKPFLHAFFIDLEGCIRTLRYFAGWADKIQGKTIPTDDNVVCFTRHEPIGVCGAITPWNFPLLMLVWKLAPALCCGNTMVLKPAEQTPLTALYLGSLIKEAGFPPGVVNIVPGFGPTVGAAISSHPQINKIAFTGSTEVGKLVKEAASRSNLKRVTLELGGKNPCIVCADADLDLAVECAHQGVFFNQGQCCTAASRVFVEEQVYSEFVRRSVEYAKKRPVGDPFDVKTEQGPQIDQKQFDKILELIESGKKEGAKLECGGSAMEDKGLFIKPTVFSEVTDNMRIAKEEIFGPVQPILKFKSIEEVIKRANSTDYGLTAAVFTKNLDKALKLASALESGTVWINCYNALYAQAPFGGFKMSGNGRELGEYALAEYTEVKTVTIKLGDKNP

ALDH1A2 = molecular target: T2, ALDH1A2 (Homo sapiens, UniProt O94788); assay: as above; format: biochemical; conditions: for remaining activity at 20 µM: compound at 20 μM, read-out: ALDH1A2 % Control at 20 μM; for IC50: 100-200 nM enzyme, 200 μM NAD+, 100 μM propionaldehyde, pH 7.5, 25° C.
T2 sequence (O94788 1-518): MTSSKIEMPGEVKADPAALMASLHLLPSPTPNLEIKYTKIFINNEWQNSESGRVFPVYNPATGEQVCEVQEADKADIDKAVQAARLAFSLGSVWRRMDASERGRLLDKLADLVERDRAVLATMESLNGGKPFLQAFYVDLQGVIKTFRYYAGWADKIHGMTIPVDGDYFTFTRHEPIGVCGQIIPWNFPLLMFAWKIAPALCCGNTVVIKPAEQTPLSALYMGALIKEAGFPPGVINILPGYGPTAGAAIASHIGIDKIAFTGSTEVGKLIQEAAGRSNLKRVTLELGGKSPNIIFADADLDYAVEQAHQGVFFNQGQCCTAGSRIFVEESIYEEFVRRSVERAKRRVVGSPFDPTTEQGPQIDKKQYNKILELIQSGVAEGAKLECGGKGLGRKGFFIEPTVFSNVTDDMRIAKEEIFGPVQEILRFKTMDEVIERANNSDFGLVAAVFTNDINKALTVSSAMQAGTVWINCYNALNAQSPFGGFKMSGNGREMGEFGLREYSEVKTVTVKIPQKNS

OVSAHO = OVSAHO Cell Viability; format: cell-based; conditions: for OVSAHO Cell Viability (30 μM) % CD133 + % ctrl / OVSAHO Cell Viability (50 μM) % CD133 + % ctrl: CD133+ cells; for OVSAHO Cell Viability (30 μM) Total Cell % ctrl / OVSAHO Cell Viability (50 μM) Total Cell % ctrl: total cells
ALDH1A1 = molecular target: T3, ALDH1A1 (Homo sapiens, UniProt P00352); assay: Inhibition of ALDH isoenzymes (NAD(P)H formation at 340 nm, purified recombinant enzyme); format: biochemical; conditions: for remaining activity at 20 µM: compound at 20 μM, read-out: ALDH1A1 % Control at 20 μM; for IC50: 100-200 nM enzyme, 200 μM NAD+, 100 μM propionaldehyde, pH 7.5, 25° C.
T3 sequence (P00352 1-501): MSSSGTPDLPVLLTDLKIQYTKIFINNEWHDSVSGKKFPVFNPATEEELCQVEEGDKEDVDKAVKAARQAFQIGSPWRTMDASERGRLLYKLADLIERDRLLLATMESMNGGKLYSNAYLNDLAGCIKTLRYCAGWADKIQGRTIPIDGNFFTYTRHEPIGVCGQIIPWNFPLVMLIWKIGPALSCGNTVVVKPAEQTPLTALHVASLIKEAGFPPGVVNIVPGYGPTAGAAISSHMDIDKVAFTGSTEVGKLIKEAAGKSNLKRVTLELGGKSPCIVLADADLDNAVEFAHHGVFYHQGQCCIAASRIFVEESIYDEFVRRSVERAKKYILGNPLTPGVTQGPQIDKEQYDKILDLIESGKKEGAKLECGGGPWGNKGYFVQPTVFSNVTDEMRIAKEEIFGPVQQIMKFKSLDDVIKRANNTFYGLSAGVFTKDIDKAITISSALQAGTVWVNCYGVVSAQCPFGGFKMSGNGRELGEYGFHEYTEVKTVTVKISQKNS

ALDH2 = molecular target: T4, ALDH2 (Homo sapiens, UniProt P05091); assay: as above; format: biochemical; set-up: key to ALDH2 inhibition at 20 μM (N.I.): N.I.: No inhibition at 20 μM; conditions: compound at 20 μM; for remaining activity at 20 µM: read-out: ALDH2 % Control at 20 μM;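 as to all read-outs here: run at 25 °C, started by adding substrate after 2 min preincubation, with 100-200 nM ALDH2, 200 µM NAD+, 100 µM propionaldehyde, 1% DMSO in BES buffer pH 7.5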
T4 sequence (P05091 18-517): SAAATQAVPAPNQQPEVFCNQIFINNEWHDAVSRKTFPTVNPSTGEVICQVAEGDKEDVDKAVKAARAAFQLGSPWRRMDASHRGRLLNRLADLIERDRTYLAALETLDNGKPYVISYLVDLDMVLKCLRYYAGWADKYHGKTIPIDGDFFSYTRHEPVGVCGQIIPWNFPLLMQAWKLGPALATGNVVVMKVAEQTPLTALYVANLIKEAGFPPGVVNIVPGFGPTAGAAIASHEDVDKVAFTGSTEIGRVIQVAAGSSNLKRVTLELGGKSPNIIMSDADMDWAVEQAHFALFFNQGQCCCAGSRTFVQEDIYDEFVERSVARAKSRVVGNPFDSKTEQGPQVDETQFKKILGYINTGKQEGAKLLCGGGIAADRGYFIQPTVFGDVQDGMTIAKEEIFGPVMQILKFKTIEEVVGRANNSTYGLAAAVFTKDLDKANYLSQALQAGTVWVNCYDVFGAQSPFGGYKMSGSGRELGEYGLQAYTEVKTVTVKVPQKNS

SMILES | remaining activity at 20 µM (ALDH1A3) [%] | remaining activity at 20 µM (ALDH1A2) [%] | OVSAHO Cell Viability (30 μM) % CD133 + % ctrl (OVSAHO) [% ctrl] | OVSAHO Cell Viability (30 μM) Total Cell % ctrl (OVSAHO) [% ctrl] | remaining activity at 20 µM (ALDH1A1) [%] | remaining activity at 20 µM (ALDH2) [%] | IC50 (ALDH1A3) [nM] | IC50 (ALDH1A2) [nM] | OVSAHO Cell Viability (50 μM) % CD133 + % ctrl (OVSAHO) [% ctrl] | OVSAHO Cell Viability (50 μM) Total Cell % ctrl (OVSAHO) [% ctrl] | IC50 (ALDH1A1) [nM] | ALDH2 inhibition at 20 μM (N.I.) (ALDH2)
C[C@H](Sc1nc2c(cnn2C)c(=O)n1-c1ccccc1)c1ccccc1 [Example 69, (S)-1-methyl-5-phenyl-6-((1-phenylethyl)thio)-1H-pyrazolo[3,4-d]pyrimidin-4(5H)-one] | 9 | 19 | 80 | 25 | 18 | 95 | – | – | – | – | – | –
CC(C)CCSc1nc2c(cnn2C)c(=O)n1-c1ccccc1 [Example 38, 6-(isopentylthio)-1-methyl-5-phenyl-1H-pyrazolo[3,4-d]pyrimidin-4(5H)-one] | – | – | – | – | – | 96 | 390 | 940 | 50 | 39 | 1200 | –
CC1(Cn2cc3c(=O)n(-c4ccccc4)c(SCc4cccc(F)c4)nc3n2)COC1 [Example 67, 6-((3-fluorobenzyl)thio)-2-((3-methyloxetan-3-yl)methyl)-5-phenyl-2H-pyrazolo[3,4-d]pyrimidin-4(5H)-one] | 4 | 21 | 100 | 16 | 7 | 97 | – | – | – | – | – | –
Cn1ncc2c(=O)n(-c3ccccc3)c(SCc3cccc(C(=O)C(F)(F)F)c3)nc21 [Example 57, 1-methyl-5-phenyl-6-((3-(2,2,2-trifluoroacetyl)benzyl)thio)-1H-pyrazolo[3,4-d]pyrimidin-4(5H)-one] | – | – | 84 | 29 | – | 100 | 1750 | 1720 | – | – | 73 | –
Cc1ccccc1-n1c(OCc2cc3ccccc3s2)nc2c(cnn2C)c1=O [Example 40, 6-(benzo[b]thiophen-2-ylmethoxy)-1-methyl-5-(o-tolyl)-1H-pyrazolo[3,4-d]pyrimidin-4(5H)-one] | – | – | – | – | – | – | > 10000 | > 10000 | 50 | 15 | 1700 | N.I.
Cn1ncc2c(=O)n(-c3ccccc3O)c(SCc3cccc(F)c3)nc21 [Example 33, 6-((3-fluorobenzyl)thio)-5-(2-hydroxyphenyl)-1-methyl-1H-pyrazolo[3,4-d]pyrimidin-4(5H)-one] | 100 | 92 | – | – | – | 88 | – | – | 92 | 18 | 4100 | –
